Data on 10 molecules can be found in patent EP3572468B1, “CYANINE DYES AND THEIR USAGE FOR IN VIVO STAINING OF MICROORGANISMS” (PHILIPPS-UNIVERSITÄT MARBURG, priority 2018, dated 2019).

Usually Kd stands for the equilibrium constant for the complex coming apart.

Data set [1] can be described thus: Aqueous solubility (remark). The following applies: reason why the extinction coefficient was determined in DMSO. It is filed as physicochemical.
A short description of data set [2]: Molar extinction coefficient determination. The format is physicochemical. How it is done:
The concentration determination and measurement of full UV-Vis spectra were performed on a Tecan 20M at room temperature. The measurements were performed in a 1400 µL quarz cuvette with a pathlength of 1 cm in a volume of 1 mL.
For the accurate determination of our compounds 6-TramTO-3 the extinction coefficient was calculated. A specific amount (< 2.00 mg) of the compound was weighted on a Mettler Toledo XP6 and dissolved in a known amount of milli-Q water. Increasing amounts of such stock solution were added into a 1 mL cuvette filled with 1 ml of milli-Q water. The corresponding absorbance of each addition was measured on a Tecan Spark 20M at the maximum at 625 nm and without exceeding 10% of the initial volume. In all the cases the absorbance was between 0.1 and 1 AU. to be in concordance with Lambert-Beer law (equation E2). A = ε l c [formula]
In this equation (E2): A = absorbance of the solution; I = length of the cuvette; c = concentration; ε = molar extinction coefficient.
The lineal regression of the obtained absorbance measurements versus the concentrations of 6-TramTO-3 allowed us to obtain the molar extinction coefficient. These measurements were repeated three times independently i.e. from three different stock solutions. The mean extinction coefficient and the standard deviation of 6-TramTO-3 at a wavelength of 625 nm in milli-Q water was 59403 ±646 M^-1cm^-1.
The mean extinction coefficient and the standard deviation of 6-NH2TO-3 and 6-AzTO-3 were determined following the above described procedure. The extinction coefficient of 6-NH2TO-3 was determined in milli-Q water, whereas the extinction coefficient of 6-AzTO-3 was determined in DMSO due to its low aqueous solubility. […] For the spectrum of 6-AzTO-3 1% of DMSO was added for a better solubility. Fig. 20 and Fig. 21 show the linear regressions from the three independent measurements. Table 4 summarized the molar extinction coefficient obtained. Table 4: Determined mean extinction coefficients and standard deviations of 6-AzTO-3 in DMSO and 6-TramTO-3 and 6-NH2TO-3 in milli-Q water.

For data set [3] the following is noted: Atto 655 in PBS pH 7.4; Alexa Fluor 647 in 50 mM potassium phosphate pH 7.2 and 150 mM NaCl; cited from earlier work.
Data set [4] in a line: Fluorescence quantum yield, dye alone. It is filed as physicochemical. The conditions noted are these: reference compounds determined against each other; Atto 655 in PBS pH 7.4, Alexa Fluor 647 in 50 mM potassium phosphate pH 7.2 and 150 mM NaCl. The method, then: Fluorescence intensity values for the quantum yields were determined on an ISS PC1 spectrofluorometer with an ISS 11650 lamp connected to an ISS Simpson model 109 and an ISS 80011 photomulitplier connected to a MGW Lauda K2R D and an Amherst Scientific Corp. 7600F for cooling. A VWR Refrigerated Circ 1160S was connected for the cooling of the cuvette chamber. It was measured in a 1400 µL fluorescence cuvette of HellmaAnalytics (104F-QS) at 25°C using the following settings: increment: 2.0 nm; integration time: 1.0 s; excitation slit width: 0.25 mm; emission slit width: 0.5 mm; excitation wavelength 590 nm. The emission spectra were recorded from 610 to 750 nm. From all spectra the corresponding background signal was substracted. Absorbance values were measured on a Jasco V-650 UV-Vis Spectrophotometer equipped with a Jasco PAC-743 temperature controlled cell holder and a Julabo F250 cooling system. UV-Vis titration measurements were performed in a 1400 µL quarz cuvette with a pathlength of 1 cm at 25°C using the following settings: increment: 1.0 nm; bandwidth: 1.0 nm; scanning speed: 1000 nm/min; scanning mode: continuous. From all values, the corresponding background signal was subtracted. The values for the reference compounds were measured in duplicates, the ones for 6-TramTO-3 with and without dsDNACT in triplicates. The quantum yields of 6-TramTO-3 with (30 eq.) and without dsDNACT were determined in 10 mM Tris pH 7.6 and 50 mM KCI. All measurement were following the procedure of Horiba and using the equation E1: ΦX = ΦST ((GradX)/(GradST)) ((((ηX))^2)/(((ηST))^2)) [formula] where Φ = fluorescence quantum yield, η = refractive index of the used solvent, Grad = gradient from the plot of integrated fluorescence intensity vs. absorbance and the subscripts ST and X denote standard and tested sample. […]
Table 3: Determined slopes and corresponding quantum yields for the two reference compounds Alexa Flour® 647 and Atto 655 and for 6-TramTO-3 with and without dsDNACT.

The next data set has as its target dsDNACT. The following applies: previously obtained results for DNA intercalators with the same DNA (dsDNACT); cited from earlier work.
The subject of data set [5] is antibiotic-sensitive K. pneumoniae. Briefly: Resistance to standard antibiotics, bacterial dilutions spotted onto solid medium. The format is cell-based, Klebsiella pneumoniae. The conditions noted are these: the other (antibiotic-sensitive) K. pneumoniae strain; dilutions spotted onto LB solid medium supplemented with antibiotic, outgrowth 48 h. How it is done:
(§1) Escherichia coli (E. coli) NEB5α (New England Biolabs) and antibiotic-resistant and -sensitive Klebsiella pneumoniae (K. pneumoniae) were cultured in Luria-Bertani (LB) solid medium (LB-Agar) overnight at 37°C. The source of the K. pneumoniae strands is of no relevance to the invention. The invention may be applied to all types of microorganisms (bacteria, viri, fungi etc.) or other cells, either contained within a sample or isolated from a sample. For staining, growth curve analysis and replating experiments bacteria were suspended in LB liquid medium at an OD600 nm of 1.0 and 800 µL were transferred into a culture tube containing 7.2 mL of LB liquid medium supplemented with DMSO or candidate dyes (2.5 µM) final concentration). Density of bacterial cultures was measured using an Ultrospec 10 Cell Density Meter with 600 nm LED source (Amersham Biosciences). For bacterial re-plating experiments bacteria were sampled at OD600 nm = 2.0 and 5 µL of indicated dilutions in LB-medium were spotted onto LB-agar plates (Fig. 5) or 100 µL were plated onto LB-agar plates followed by incubation at 37°C until colonies became visible.

The test system of data set [6] is multiresistant K. pneumoniae. Described as above. The conditions noted are these: dilutions spotted onto LB solid medium supplemented with antibiotic, outgrowth 48 h. The format is cell-based, Klebsiella pneumoniae. The method, then:
as §1

For a further data set, the system named is E. coli. Described as above. It is filed as cell-based, Escherichia coli. The conditions noted are these: dilutions spotted onto LB solid medium supplemented with antibiotic, outgrowth 48 h. The method, then: as §1
The next data set deals with bacteria. The following applies: in vivo labeling of bacteria for macrophage uptake assays; indicative of toxicity; cited from earlier work.
The test system of data set [7] is Escherichia coli (E. coli) NEB5α. Briefly: Bacteria culture and staining: growth and FACS labeling of E. coli. It is filed as cell-based. The conditions noted are these: for bacterial growth in presence of dye: 2.5 µM dye in LB medium, OD600 over time, liquid and solid medium; for fluorescent labeling of live bacteria (FACS): 2.5 µM dye in culture medium, FACS at mid-exponential growth phase (OD600 = 2.0). How it is done:
as §1
Bacteria and macrophages were washed with PBS prior to flow cytometry and analysed using a Guava easyCyte flow cytometer (Millipore). FCS3.0 files were analysed using Flowing Software (http://flowingsoftware.btk.fi/). Cells were first gated in the forward- / side-scatter plot to exclude debries, followed by quadrant gating in plots using the fluorescence channels as shown above. For discrimination of live/dead cell discrimination cells in PBS were supplemented with 0.4 µL/mL propidium-iodide (5 mg/ml solution) followed by 5 min incubation on ice. Propidium iodide signal was recorded in the yellow channel.

For `CC[n+]1ccc(/C=C/C=C2\Sc3ccccc3N2CCCCCCN=[N+]=[N-])c2ccccc21.[I-]` [6-AzTO-3, 4-((1E,3Z)-3-(3-(6-azidohexyl)benzo[d]thiazol-2(3H)-ylidene)prop-1-en-1-yl)-1-ethylquinolin-1-ium iodide], in data set [1], the aqueous solubility entry is “low”. The molecule also displayed a mean extinction coefficient in data set [2] (in DMSO, absorbance maximum at 639 nm) of 110203 ± 1577 M⁻¹ cm⁻¹.
For `CC[n+]1ccc(/C=C/C=C2\Sc3ccccc3N2CCCCCCN)c2ccccc21.O=C([O-])C(F)(F)F` [6-NH2TO-3, mono(4-((1E,3Z)-3-(3-(6-ammoniohexyl)benzo[d]thiazol-2(3H)-ylidene)prop-1-enyl)-1-ethylquinolinium) mono(2,2,2-trifluoroacetate)], the mean extinction coefficient in data set [2] (in milli-Q water, absorbance maximum at 625 nm) turned out to be 90043 ± 418 M⁻¹ cm⁻¹.
With `CC[N+]1=c2cc3c(cc2CCC1)=Nc1cc2c(cc1O3)N(CCCC(=O)ON1C(=O)CCC1=O)C(C)(C)CC2CS(=O)(=O)[O-]` (centres unmarked) [Atto 655, reference compound], in [3], the “quantum yield (lit.)” value is listed as 0.30. The quantum yield in data set [4] came out at 0.31.
Consider `CN(C)c1ccc2cc3ccc(N(C)C)cc3nc2c1` [acridine orange], for which the Kd on dsDNACT is 36 µM.
As for `CC1(C)S[C@@H]2[C@H](NC(=O)[C@H](N)c3ccccc3)C(=O)N2[C@H]1C(=O)O` [ampicillin], the sensitivity to antibiotic result in data set [5] is reported as “sensitive”; in data set [6] it was “insensitive”; with E. coli it was “sensitive”.
Take `O=C(N[C@H](CO)[C@H](O)c1ccc([N+](=O)[O-])cc1)C(Cl)Cl` [chloramphenicol]: the sensitivity to antibiotic result in data set [5] is “sensitive”; in [6], “insensitive”; in the data set on E. coli it was “sensitive”.
As for `CN(C)c1ccc2nc3ccc(=[N+](C)C)cc-3sc2c1` [methylene blue], the Kd on dsDNACT is 46 µM.
In the case of Alexa Fluor^® 647 [reference compound], the “quantum yield (lit.)” value in data set [3] is 0.33. For the same molecule, in data set [4], the quantum yield is on record as 0.32.
Regarding SyTO-9^™, in the data set with bacteria, the “colony formation of the stained bacteria” value is given as “reduced colony formation”. Moreover, in data set [7], the “bacterial growth in presence of dye” value is “delayed bacterial growth substantially” and the “fluorescent labeling of live bacteria (FACS)” value is “efficient green-fluorescent labeling”.
For “carboxyfluorescein succinimidyl ester [CFSE]”, in data set [7], the “bacterial growth in presence of dye” value is “compatible with bacterial growth” and the “fluorescent labeling of live bacteria (FACS)” value is on record as “hardly labeled bacteria”.
